For one assay, the target named is NAMPT (Homo sapiens (Human), UniProt P43490). Briefly: Biochemical Inhibition Assay (NAMPT enzymatic reaction, NMN quantified by mass spectrometry). Conditions: recombinant His-tagged NAMPT, 33 nM; 1 μM NAM; read-out: Biochem IC50. The gist of the method: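 His-tagged human NAMPT from E. coli was preincubated 15 min at RT with compound in Hepes pH 7.5/MgCl2 buffer. Reaction ran 30 min at RT with 1 μM NAM, 100 μM PRPP and 2.5 mM ATP, then was quenched with formic acid. NMN was measured by RapidFire MS, normalized to L-cystathionine, and IC50 derived from % inhibition.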
NAMPT, sequence (P43490 whole entry): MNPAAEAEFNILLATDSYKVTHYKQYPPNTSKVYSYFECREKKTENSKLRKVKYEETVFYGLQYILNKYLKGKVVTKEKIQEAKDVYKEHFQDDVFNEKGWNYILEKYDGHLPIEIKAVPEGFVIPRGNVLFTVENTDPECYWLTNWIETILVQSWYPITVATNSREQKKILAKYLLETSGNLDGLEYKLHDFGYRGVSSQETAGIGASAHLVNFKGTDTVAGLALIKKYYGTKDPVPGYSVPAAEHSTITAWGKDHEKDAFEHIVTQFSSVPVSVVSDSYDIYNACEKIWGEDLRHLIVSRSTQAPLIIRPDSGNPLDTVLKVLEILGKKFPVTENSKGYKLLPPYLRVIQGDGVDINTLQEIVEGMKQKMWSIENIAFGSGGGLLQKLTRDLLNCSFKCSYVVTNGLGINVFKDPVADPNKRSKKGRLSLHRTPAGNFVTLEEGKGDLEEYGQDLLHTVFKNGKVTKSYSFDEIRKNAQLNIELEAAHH

Another assay deals with A2780 cells. The assay is described as follows: In-Vitro Cell Proliferation Assay (SRB, 72 hours). Conditions: Homo sapiens, A2780, 72 h, read-out: A2780 IC50. The format is cell-based. Summed up:
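Plated cells exposed to serially diluted compound (0.1% DMSO final) for 72 h at 37 °C, 5% CO2. Viability by SRB staining after TCA fixation, absorbance 570 nm, media-only background subtracted; % inhibition relative to DMSO-treated cells, interpolated between bracketing concentrations.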

Setting [1] is: A2780 cells, 72 hours, sulforhodamine B.

The structures appear in SMILES notation. Where two headings read alike, the source gives them in different places.

With `O=C(/C=C/c1cccnc1)Nc1ccc(S(=O)(=O)c2cccc(Cl)c2)cc1` [(2E)-N-{4-[(3-chlorobenzene)sulfonyl]phenyl}-3-(pyridin-3-yl)prop-2-enamide], the IC50 (as a rule, the concentration at which inhibition is half-maximal) at NAMPT was 122 nM; with A2780 cells, 182 nM.

As to `CCS(=O)(=O)Nc1cccc(S(=O)(=O)c2ccc(NC(=O)/C=C/c3cccnc3)cc2)c1` [(2E)-N-{4-[(3-ethanesulfonamidobenzene)sulfonyl]phenyl}-3-(pyridin-3-yl)prop-2-enamide], the IC50 is 8.1 nM at NAMPT and 100 to 1000 nM in the assay on A2780 cells (setting [1]).

Take `CCOc1cccc(S(=O)(=O)c2ccc(NC(=O)/C=C/c3cccnc3)cc2)c1` [(2E)-N-{4-[(3-ethoxybenzene)sulfonyl]phenyl}-3-(pyridin-3-yl)prop-2-enamide]: the IC50 was 57.2 nM at NAMPT and 91.9 nM with A2780 cells (setting [1]).

For the compound `CCc1cccc(S(=O)(=O)c2ccc(NC(=O)/C=C/c3cccnc3)cc2)c1` [(2E)-N-{4-[(3-ethylbenzene)sulfonyl]phenyl}-3-(pyridin-3-yl)prop-2-enamide], the IC50 at NAMPT amounted to 3.3 nM; with A2780 cells (setting [1]), 30.5 nM.

Consider `COc1ccc(S(=O)(=O)c2ccc(NC(=O)/C=C/c3cccnc3)cc2)cc1F` [(2E)-N-{4-[(3-fluoro-4-methoxybenzene)sulfonyl]phenyl}-3-(pyridin-3-yl)prop-2-enamide], for which the IC50 stood at 11.5 nM on NAMPT and 103 nM in the assay with A2780 cells (setting [1]).

Regarding `Cc1ccc(S(=O)(=O)c2ccc(NC(=O)/C=C/c3cccnc3)cc2)cc1F` [(2E)-N-{4-[(3-fluoro-4-methylbenzene)sulfonyl]phenyl}-3-(pyridin-3-yl)prop-2-enamide], the IC50 amounted to 27.6 nM at NAMPT and 196 nM in the assay on A2780 cells (setting [1]).

Turning to `CCCOc1ccc(S(=O)(=O)c2ccc(NC(=O)/C=C/c3cccnc3)cc2)cc1F` [(2E)-N-{4-[(3-fluoro-4-propoxybenzene)sulfonyl]phenyl}-3-(pyridin-3-yl)prop-2-enamide], the IC50 at NAMPT was 40.9 nM; in the assay on A2780 cells (setting [1]), 100 to 1000 nM.

Turning to `COc1cc(F)cc(S(=O)(=O)c2ccc(NC(=O)/C=C/c3cccnc3)cc2)c1` [(2E)-N-{4-[(3-fluoro-5-methoxybenzene)sulfonyl]phenyl}-3-(pyridin-3-yl)prop-2-enamide], the figures for the IC50 on NAMPT and in the assay on A2780 cells (setting [1]) were 3.2 nM and 68.1 nM, respectively.

Consider `Cc1cc(F)cc(S(=O)(=O)c2ccc(NC(=O)/C=C/c3cccnc3)cc2)c1` [(2E)-N-{4-[(3-fluoro-5-methylbenzene)sulfonyl]phenyl}-3-(pyridin-3-yl)prop-2-enamide], for which the IC50 is 17.5 nM on NAMPT and 108 nM in the assay with A2780 cells (setting [1]).

For the compound `O=C(/C=C/c1cccnc1)Nc1ccc(S(=O)(=O)c2cccc(F)c2)cc1` [(2E)-N-{4-[(3-fluorobenzene)sulfonyl]phenyl}-3-(pyridin-3-yl)prop-2-enamide], the IC50 came out at 66.4 nM at NAMPT and 103 nM with A2780 cells (setting [1]).

As for `CS(=O)(=O)Nc1cccc(S(=O)(=O)c2ccc(NC(=O)/C=C/c3cccnc3)cc2)c1` [(2E)-N-{4-[(3-methanesulfonamidobenzene)sulfonyl]phenyl}-3-(pyridin-3-yl)prop-2-enamide], the IC50 at NAMPT was 7.5 nM; in the assay on A2780 cells (setting [1]), 100 to 1000 nM.

For `CS(=O)(=O)c1cccc(S(=O)(=O)c2ccc(NC(=O)/C=C/c3cccnc3)cc2)c1` [(2E)-N-{4-[(3-methanesulfonylbenzene)sulfonyl]phenyl}-3-(pyridin-3-yl)prop-2-enamide], the IC50 on NAMPT is 14.3 nM; in the assay with A2780 cells (setting [1]), 100 to 1000 nM.

`COc1cccc(S(=O)(=O)c2ccc(NC(=O)/C=C/c3cccnc3)cc2)c1` [(2E)-N-{4-[(3-methoxybenzene)sulfonyl]phenyl}-3-(pyridin-3-yl)prop-2-enamide]: the IC50 on NAMPT was found to be 85.7 nM; with A2780 cells (setting [1]), 114 nM.

For `O=C(/C=C/c1cccnc1)Nc1ccc(S(=O)(=O)c2cccc(-c3ccccc3)c2)cc1` [(2E)-N-{4-[(3-phenylbenzene)sulfonyl]phenyl}-3-(pyridin-3-yl)prop-2-enamide], the IC50 on NAMPT is 25.4 nM; in the assay on A2780 cells (setting [1]) it was 100 to 1000 nM.

Values taken from patent publication US9169209B2, “Compounds and compositions for the inhibition of NAMPT” (FORMA TM, LLC, priority 2011, dated 2015).
